The test system of assay [1] is β2AR and IR receptor complexes. Description: BRET^2 saturation assay with agonist stimulation, β2AR and IR homo- and heteromers in HEK-293 cells. The conditions noted are these: data not shown.
A further assay has as its system β2AR-RLuc. The conditions noted are these: β2AR-RLuc fusion construct; ref Vrecl et al. [47]; cited from earlier work.
Assay [2] addresses T1, HA-β2AR (Homo sapiens, UniProt P07550).
T1 construct: host or cells: HEK-293
Description: HA-β2AR internalization quantified by ELISA in HEK-293 cells. The class given is cell-based. As for the experimental part:
ELISA assays for the measurement of surface-expressed HA-β2AR and quantification of receptor internalization were performed as described previously. Briefly, HEK-293 cells were transiently transfected with either β2AR-RLuc8 alone or β2AR-RLuc8 and IR-GFP^2. One microgram of each receptor was used, and the total amount of cDNA used for transfection was kept uniform by adding empty pcDNA3.1 vector. […] After 48 h, cells were first subjected to a 2-h starvation period, and then were treated as required in HEPES-modified DMEM with 0.1% BSA for 30 min at 37°C before fixing with 4% paraformaldehyde for 20 min at 4°C. Cells were then washed 3 times in PBS and blocked (PBS containing 1% BSA) for 60 min at room temperature. Cells were kept at room temperature for all of the subsequent steps. First, cells were incubated for 2 h with anti-HA antibody at a 1∶600 dilution. After 3 washes, cells were incubated with anti-rat horseradish peroxidase-conjugated antibody at a 1∶1000 dilution. After extensive washing, the reaction was developed using the 3, 3′, 5, 5′-tetra-methylbenzidine (TMB) liquid substrate system. […] The absorbances were measured at 450 nm using the microplate reader Rosys Anthos 2010 (Anthos Labtec Instruments, Wals, Austria). […]
[…]. Data are expressed as the means ± S.E. from three independent experiments performed in triplicate. […]
(In an ELISA, binding on a coated surface is turned into a signal by an enzyme label.)

Assay [3] deals with T1, HA-β2AR. Description: whole-cell radioligand binding assay, [125I]-iodopindolol displacement, HA-β2AR. Particulars: HEK-293 cells expressing HA-β2AR alone or with IR.
Description: To establish a relationship between the luminescence/fluorescence signals generated by RLuc8 and GFP^2-tagged β2ARs and cell-surface receptor number, radioligand binding assays were carried out on whole cells as previously described [47]. […] An aliquot of cells (∼5×10^5) from each transfection was also transferred into a 60-mm dish for total luminescence/fluorescence measurements as described above. […] Determination of the radioactivity levels was performed in triplicate. Binding parameters were determined from displacement curves generated by a sigmoidal dose-response curve fit (GraphPad Prism 5.0). Receptor density (Bmax), expressed as the receptor number per cell, was calculated as previously described by Ramsay et al. [48]. Whole-cell radioligand binding assays were also performed with cells expressing β2AR alone or in combination with IR.
In assay [4] the test system is β2AR in epidermoid carcinoma A431 cells. On the set-up: method as in PMID 14709719. Particulars: cited from earlier work.

By IC50 is commonly meant the concentration that inhibits the measured activity by half.

As for `CC(C)NCC(O)c1ccc(O)c(O)c1` (stereo not shown) [isoproterenol, reference compound], the “change in the BRET^2 signal on agonist stimulation” value in assay [1] was “did not promote any detectable change”.
Turning to `CC(C)NCC(O)COc1cccc2[nH]ccc12` (stereo not shown) [pindolol], the half-inhibitory concentration (IC50) with β2AR-RLuc is 0.94 ± 0.06 nM.
In the case of insulin, in assay [1], the “change in the BRET^2 signal on agonist stimulation” value is listed as “did not promote any detectable change”. Further, the “amount of surface-expressed β2AR lost to internalization in response to insulin” value on HA-β2AR [2] is around 15%; in assay [4], around 30%. Further, at HA-β2AR [2] (insulin 0.1 µM, 30 min, 37°C), the “β2AR internalization (ELISA, Figure S1)” value was “did not induce marked β2AR internalization”. Also, the “competition for binding against [125I]-iodopindolol” value at HA-β2AR [3] was “neither competed for binding”.

Source of the values: PMC4234468 (PLoS ONE, 2014).
